Data set [1] deals with HBV-infected NTCP-HepG2 cells, secreted HBsAg. In words: microbe, parasite or virus in culture. The following applies: Hepatitis B virus, 120 h, read-out: NTCP HBsAg EC50. It is filed as cell-based, hepatitis B virus (genotype D, AD38-derived). On the procedure: NTCP-HepG2 Antiviral Assay for Secreted HBsAg
HepG2 cells stably expressing sodium-taurocholate cotransporting polypeptide (NTCP-HepG2) were grown in Dulbecco's Modified Eagle Medium (DMEM) without sodium pyruvate (Thermo Fisher Scientific, Waltham, Mass.) supplemented with 10% fetal bovine serum, 2 mM L-glutamine, 1% penicillin/streptomycin, and 0.25 mg/mL G-418. NTCP-HepG2 cells were infected with 4000 genome equivalent per cell of genotype D (AD38-derived) HBV in DMEM without sodium pyruvate (Thermo Fisher Scientific, Waltham, Mass.) supplemented with 2% fetal bovine serum, 2 mM L-glutamine, 1% penicillin/streptomycin, 2.5% DMSO, and 4% PEG 8000 (Promega, Madison, Wis.). After 24-hour incubation, cells were washed three times with OptiMEM (Thermo Fisher Scientific, Waltham, Mass.) and fed with fresh DMEM without sodium pyruvate (Thermo Fisher Scientific, Waltham, Mass.) supplemented with 2% fetal bovine serum, 2 mM L-glutamine, 1% penicillin/streptomycin, and 2.5% DMSO. At 4 days after infection, infected NTCP-HepG2 cells were seeded on 384-well plates pre-coated with collagen at a density of 20000 cells per well containing serially diluted compounds of the present disclosure or DMSO (0.5%) in a final volume of 80 μl of DMEM without sodium pyruvate (Thermo Fisher Scientific, Waltham, Mass.) supplemented with 2% fetal bovine serum, 2 mM L-glutamine, 1% penicillin/streptomycin, and 1% DMSO. After an incubation time of 5 days, cell culture supernatant was collected and measured for HBsAg.
Secreted HBsAg in the supernatant were measured using a multiplex chemiluminescent MSD assay (Meso Scale Discovery, Rockville, Md.) using capture and detection antibody pairs specific for HBsAg. The EC50 values were calculated from the fit of the dose-response curves to a four-parameter equation. All EC50 values represent geometric mean values of a minimum of four determinations.

Another data set is described as follows: MT-4 cytotoxicity assay. The following applies: human. It is filed as cell-based, human. The protocol: Biological Example 2: MT-4 Cytotoxicity Assay
The MT-4 cell line (HTLV-1 transformed, human T lymphoblastoid cells) was obtained from the NIH AIDS Reagent program (Bethesda, Md.). MT-4 cells were maintained in RPMI-1640 media (Thermo Fisher Scientific, Waltham, Mass.) supplemented with 10% fetal bovine serum, 100 Units/mL penicillin, and 100 μg/mL streptomycin. For the MT-4 cytotoxicity assay, 0.4 μL of serially diluted solutions of certain compounds disclosed herein were added to 40 μL of cell maintenance media in 384-well black, solid bottom plate using a Biomek FX workstation (Beckman Coulter, Brea, Calif.). Two thousand cells in 35 μL were added to each well using a Biotek uFlow Workstation (Biotek, Winooski, Vt.). Each assay plate contained 10 μM puromycin (final concentration) and 0.5% DMSO in RPMI-1640 media as positive and negative controls, respectively. Assay plates were incubated for five days at 37° C. in an incubator set at 5% CO2 and 90% humidity. After five days, 22 μL of Cell Titer Glo reagent (Promega, Madison, Wis.) was added to the assay plates with a Biotek uFlow Workstation. Plates were subsequently placed on an Envision Plate Reader (Perkin Elmer, Waltham, Mass.) for five minutes before the luminescence signal was read. CC50 values were defined as the compound concentration that caused a 50% decrease in luminescence signal, and were calculated by non-linear regression using Pipeline Pilot software by applying a four parameter fit equation (Accelrys, San Diego, Calif.) and are reported in the following Table 1.

Setting [2] is: five days, Cell Titer Glo luminescence, read-out: MT-4 CC50.
The mark [3] stands for this setting: secreted HBsAg in supernatant after 5 days, geometric mean of minimum four determinations.

pEC50: −log10 of the molar value. Like-named read-outs stand apart in the source and are kept apart here.

For the compound `CC1(C)CC[C@@H]2c3cc(OCc4ccccc4)c(OC(F)(F)F)cc3-c3cc(=O)c(C(=O)O)cn3N21` [Example 75, (R)-12-(benzyloxy)-3,3-dimethyl-8-oxo-11-(trifluoromethoxy)-2,3,8,13b-tetrahydro-1H-pyrido[2,1-a]pyrrolo[1,2-c]phthalazine-7-carboxylic acid], in data set [1], the pEC50 is 8.21. Besides, the CC50 at 5 days in “MT-4 cytotoxicity assay” (setting [2]) turned out to be 5000 nM.
Turning to `COc1cc2c(cc1C#CC(C)(C)OC)[C@H]1CCC(C)(C)N1n1cc(C(=O)O)c(=O)cc1-2` [Example 43], the pEC50 in data set [1] (setting [3]) is 8.12. Further, the CC50 at 5 days in “MT-4 cytotoxicity assay” (setting [2]) is over 10000 nM.
For `COCC12CC(COc3cc4c(cc3OC(F)F)-c3cc(=O)c(C(=O)O)cn3N3[C@@H]4CCC3(C)C)(C1)C2` [Compound 105, (R)-11-(difluoromethoxy)-12-((3-(methoxymethyl)bicyclo[1.1.1]pentan-1-yl)methoxy)-3,3-dimethyl-8-oxo-2,3,8,13b-tetrahydro-1H-pyrido[2,1-a]pyrrolo[1,2-c]phthalazine-7-carboxylic acid] the same measures were 8.85 and over 10000 nM.
As to `COCc1cc2c(cc1OCC1(COC)CC1)[C@H]1CCC(C)(C)N1n1cc(C(=O)O)c(=O)cc1-2` [Compound 109, (R)-11-(methoxymethyl)-12-((1-(methoxymethyl)cyclopropyl)methoxy)-3,3-dimethyl-8-oxo-2,3,8,13b-tetrahydro-1H-pyrido[2,1-a]pyrrolo[1,2-c]phthalazine-7-carboxylic acid], the pEC50 in data set [1] (setting [3]) was 7.88. Besides, the CC50 at 5 days in “MT-4 cytotoxicity assay” (setting [2]) was over 10000 nM.
In the same order, the values of `COc1cc2c(cc1C#Cc1cncn1C)[C@H]1CCC(C)(C)N1n1cc(C(=O)O)c(=O)cc1-2` [Example 42, (R)-11-methoxy-3,3-dimethyl-12-((1-methyl-1H-imidazol-5-yl)ethynyl)-8-oxo-2,3,8,13btetrahydro-1H-pyrido[2,1-a]pyrrolo[1,2-c]phthalazine-7-carboxylic acid] are 8.32 and over 10000 nM.
In the case of `COCCCOc1cc2c(cc1Cl)-c1cc(=O)c(C(=O)O)cn1[C@@H]1[C@@H]2CCC1(C)C` (single isomer, unassigned) [Example 36], in data set [1] (setting [3]), the negative logarithm of the EC50 (pEC50) is 6.77. In addition, the half-maximal cytotoxic concentration (CC50) at 5 days in “MT-4 cytotoxicity assay” (setting [2]) was over 10000 nM.
Regarding `COCCCOc1cc2c(cc1Cl)-c1cc(=O)c(C(=O)O)cn1N1[C@@H]2CCC12CC2` (single isomer, unassigned) [Example 56], the pEC50 in data set [1] (setting [3]) was 8.82. The compound further came in with a CC50 at 5 days in the data set “MT-4 cytotoxicity assay” (MT-4 CC50) of over 10000 nM.
As to `COc1cc2c(cc1OCCCOC(C)(C)C)[C@H]1CCC(C)(C)N1n1cc(C(=O)O)c(=O)cc1-2` [Example 65, (R)-12-(3-(tert-butoxy)propoxy)-11-methoxy-3,3-dimethyl-8-oxo-2,3,8,13b-tetrahydro-1H-pyrido[2,1-a]pyrrolo[1,2-c]phthalazine-7-carboxylic acid], the pEC50 in data set [1] (setting [3]) was 9.39. In the data set “MT-4 cytotoxicity assay” (setting [2]), the CC50 at 5 days was over 10000 nM.
As for `COCc1cc2c(cc1OCCCO)[C@H]1CCC(C)(C)N1n1cc(C(=O)O)c(=O)cc1-2` [Compound 111, (R)-12-(3-hydroxypropoxy)-11-(methoxymethyl)-3,3-dimethyl-8-oxo-2,3,8,13b-tetrahydro-1H-pyrido[2,1-a]pyrrolo[1,2-c]phthalazine-7-carboxylic acid], in data set [1] (setting [3]), the pEC50 is 7.49. For the same compound, the CC50 at 5 days in “MT-4 cytotoxicity assay” (setting [2]) was over 10000 nM.
In the same order, the values of `COCCCOc1cc2c(cc1Cl)-c1cc(=O)c(C(=O)O)cn1N1[C@H](C)CC[C@H]21` (single isomer, unassigned) [Example 7] are 7.49 and over 10000 nM.
Regarding `COCCCOc1cc2c(cc1COC)-c1cc(=O)c(C(=O)O)cn1N1[C@@H]2CCC12CCC2` [Compound 110, (R)-11′-(methoxymethyl)-12′-(3-methoxypropoxy)-8′-oxo-1′,2′,8′,13b′-tetrahydrospiro[cyclobutane-1,3′-pyrido[2,1-a]pyrrolo[1,2-c]phthalazine]-7′-carboxylic acid], the negative-log EC50 (pEC50) in data set [1] (setting [3]) is 8.41. The 50% cytotoxic concentration (CC50) at 5 days in “MT-4 cytotoxicity assay” (MT-4 CC50) is over 10000 nM.
On to `COCc1cc2c(cc1OCCCOC1COC1)[C@H]1CCC(C)(C)N1n1cc(C(=O)O)c(=O)cc1-2` [Example 94, (R)-11-(methoxymethyl)-3,3-dimethyl-12-(3-(oxetan-3-yloxy)propoxy)-8-oxo-2,3,8,13b-tetrahydro-1H-pyrido[2,1-a]pyrrolo[1,2-c]phthalazine-7-carboxylic acid], for which the negative logarithm of the EC50 (pEC50) in data set [1] (setting [3]) is 8.22. In addition, the half-maximal cytotoxic concentration (CC50) at 5 days in the data set “MT-4 cytotoxicity assay” (setting [2]) was over 10000 nM.
Turning to `COCCCOc1cc2c(cc1OC)-c1cc(=O)c(C(=O)O)cn1N1[C@@H]2CCC1(C)C` [Example 14, (R)-11-methoxy-12-(3-methoxypropoxy)-3,3-dimethyl-8-oxo-2,3,8,13b-tetrahydro-1H-pyrido[2,1-a]pyrrolo[1,2-c]phthalazine-7-carboxylic acid], the pEC50 in data set [1] (setting [3]) is 8.68. Besides, the CC50 at 5 days in the data set “MT-4 cytotoxicity assay” (setting [2]) was over 10000 nM.
In the same order, the values of `COCc1cc2c(cc1C#CC(C)(C)OC)[C@H]1CCC(C)(C)N1n1cc(C(=O)O)c(=O)cc1-2` [Example 97, (R)-12-(3-methoxy-3-methylbut-1-yn-1-yl)-11-(methoxymethyl)-3,3-dimethyl-8-oxo-2,3,8,13b-tetrahydro-1H-pyrido[2,1-a]pyrrolo[1,2-c]phthalazine-7-carboxylic acid] are 8.07 and over 10000 nM.
For `COCCCOc1cc2c(cc1OC(C)C)-c1cc(=O)c(C(=O)O)cn1N1[C@@H]2CCC1(C)C` [Example 22, (R)-11-isopropoxy-12-(3-methoxypropoxy)-3,3-dimethyl-8-oxo-2,3,8,13b-tetrahydro-1H-pyrido[2,1-a]pyrrolo[1,2-c]phthalazine-7-carboxylic acid] the same measures were 7.92 and over 10000 nM.
For `CC1(C)CC[C@@H]2c3cc(OCC45CC(C#N)(C4)C5)c(OC(F)(F)F)cc3-c3cc(=O)c(C(=O)O)cn3N21` [Example 92, (R)-12-((3-cyanobicyclo[1.1.1]pentan-1-yl)methoxy)-3,3-dimethyl-8-oxo-11-(trifluoromethoxy)-2,3,8,13b-tetrahydro-1H-pyrido[2,1-a]pyrrolo[1,2-c]phthalazine-7-carboxylic acid] the same measures were 8.52 and 8100 nM.
Take `COC(C)(C)C#Cc1cc2c(cc1Cl)-c1cc(=O)c(C(=O)O)cn1N1[C@@H]2CCC12CC2` [Example 85, (R)-11′-chloro-12′-(3-methoxy-3-methylbut-1-yn-1-yl)-8′-oxo-1′,2′,8′,13b′-tetrahydrospiro[cyclopropane-1,3′-pyrido[2,1-a]pyrrolo[1,2-c]phthalazine]-7′-carboxylic acid]: the pEC50 in data set [1] (setting [3]) is 8.39. The cytotoxic concentration (CC50) at 5 days in “MT-4 cytotoxicity assay” (MT-4 CC50) was over 10000 nM.
On to `CC(C)(O)C#Cc1cc2c(cc1C1CC1)-c1cc(=O)c(C(=O)O)cn1N1[C@@H]2CCC1(C)C` [Example 71, (R)-11-cyclopropyl-12-(3-hydroxy-3-methylbut-1-yn-1-yl)-3,3-dimethyl-8-oxo-2,3,8,13b-tetrahydro-1H-pyrido[2,1-a]pyrrolo[1,2-c]phthalazine-7-carboxylic acid], for which the pEC50 in data set [1] (setting [3]) was 8.60. The CC50 at 5 days in “MT-4 cytotoxicity assay” (setting [2]) was over 10000 nM.
In the same order, the values of `COCCCOc1cc2c(cc1Cl)-c1cc(=O)c(C(=O)O)cn1N1CCC(C)(C)[C@H]21` (single isomer, unassigned) [Example 47] are 7.80 and 1700 nM.
Consider `COCCCOc1cc2c(cc1Cl)-c1cc(=O)c(C(=O)O)cn1N1CCCC21` (stereo not shown) [Example 1, 11-chloro-12-(3-methoxypropoxy)-8-oxo-2,3,8,13b-tetrahydro-1H-pyrido[2,1-a]pyrrolo[1,2-c]phthalazine-7-carboxylic acid], for which the pEC50 in data set [1] (setting [3]) is 7.05. Moreover, the CC50 at 5 days in the data set “MT-4 cytotoxicity assay” (setting [2]) is 8000 nM.

(Values after patent US10442804B2, “Compounds for the treatment of hepatitis B virus infection” (Gilead Sciences, Inc., priority 2017, dated 2019).)
